In the NIST ThermoML archive (doi:10.1016/j.fluid.2014.04.004):
± gives the expanded uncertainty stated by the source.

Legend:
[1] = excess molar enthalpy (molar enthalpy of mixing); xn = mol fraction of the nth substance listed; conditions: 303.15 K, 101 kPa, Liquid, Calvet calorimetry
[2] = Liquid, Closed cell (Static) method

Cc1cncc(C)c1 [3,5-dimethylpyridine] + C1CCCCC1
excess molar enthalpy ([1]; x1 = 0.085): 0.467 ± 0.011 kJ/mol | excess molar enthalpy ([1]; x1 = 0.221): 0.95 ± 0.013 kJ/mol | excess molar enthalpy ([1]; x1 = 0.312): 1.15 ± 0.013 kJ/mol | excess molar enthalpy ([1]; x1 = 0.386): 1.23 ± 0.014 kJ/mol | excess molar enthalpy ([1]; x1 = 0.515): 1.28 ± 0.014 kJ/mol | excess molar enthalpy ([1]; x1 = 0.635): 1.17 ± 0.013 kJ/mol | excess molar enthalpy ([1]; x1 = 0.735): 0.91 ± 0.012 kJ/mol | excess molar enthalpy ([1]; x1 = 0.83): 0.623 ± 0.011 kJ/mol | excess molar enthalpy ([1]; x1 = 0.899): 0.398 ± 0.011 kJ/mol

Cc1cccc(C)n1 [2,6-dimethylpyridine] + C1CCCCC1
excess molar enthalpy ([1]; x1 = 0.09): 0.515 ± 0.011 kJ/mol | excess molar enthalpy ([1]; x1 = 0.22): 1 ± 0.013 kJ/mol | excess molar enthalpy ([1]; x1 = 0.275): 1.12 ± 0.013 kJ/mol | excess molar enthalpy ([1]; x1 = 0.308): 1.18 ± 0.013 kJ/mol | excess molar enthalpy ([1]; x1 = 0.434): 1.25 ± 0.014 kJ/mol | excess molar enthalpy ([1]; x1 = 0.529): 1.19 ± 0.014 kJ/mol | excess molar enthalpy ([1]; x1 = 0.669): 0.945 ± 0.012 kJ/mol | excess molar enthalpy ([1]; x1 = 0.806): 0.594 ± 0.011 kJ/mol | excess molar enthalpy ([1]; x1 = 0.8998): 0.313 ± 0.011 kJ/mol

Cc1cccc(C)n1 [2,6-dimethylpyridine]
vapor or sublimation pressure ([2]; 283.37 K): 0.3 ± 0.004 kPa | vapor or sublimation pressure ([2]; 288.33 K): 0.42 ± 0.004 kPa | vapor or sublimation pressure ([2]; 293.3 K): 0.581 ± 0.006 kPa | vapor or sublimation pressure ([2]; 298.3 K): 0.794 ± 0.007 kPa | vapor or sublimation pressure ([2]; 303.27 K): 1.07 ± 0.01 kPa | vapor or sublimation pressure ([2]; 313.27 K): 1.879 ± 0.012 kPa | vapor or sublimation pressure ([2]; 323.24 K): 3.163 ± 0.015 kPa | vapor or sublimation pressure ([2]; 333.21 K): 5.14 ± 0.019 kPa | vapor or sublimation pressure ([2]; 343.2 K): 8.101 ± 0.026 kPa | vapor or sublimation pressure ([2]; 353.14 K): 12.23 ± 0.034 kPa

Cc1cncc(C)c1 [3,5-dimethylpyridine]
vapor or sublimation pressure ([2]; 273.5 K): 0.04 ± 0.001 kPa | vapor or sublimation pressure ([2]; 283.45 K): 0.085 ± 0.002 kPa | vapor or sublimation pressure ([2]; 293.47 K): 0.172 ± 0.002 kPa | vapor or sublimation pressure ([2]; 303.54 K): 0.331 ± 0.004 kPa | vapor or sublimation pressure ([2]; 313.56 K): 0.612 ± 0.006 kPa | vapor or sublimation pressure ([2]; 323.59 K): 1.078 ± 0.01 kPa | vapor or sublimation pressure ([2]; 333.66 K): 1.824 ± 0.011 kPa | vapor or sublimation pressure ([2]; 343.62 K): 2.973 ± 0.014 kPa | vapor or sublimation pressure ([2]; 353.63 K): 4.688 ± 0.018 kPa

C1CCCCC1 [cyclohexane]
vapor or sublimation pressure ([2]; 283.32 K): 6.389 ± 0.023 kPa | vapor or sublimation pressure ([2]; 288.28 K): 8.195 ± 0.026 kPa | vapor or sublimation pressure ([2]; 293.27 K): 10.42 ± 0.031 kPa | vapor or sublimation pressure ([2]; 298.25 K): 13.17 ± 0.037 kPa | vapor or sublimation pressure ([2]; 303.27 K): 16.45 ± 0.046 kPa | vapor or sublimation pressure ([2]; 313.24 K): 24.97 ± 0.062 kPa | vapor or sublimation pressure ([2]; 323.21 K): 36.72 ± 0.086 kPa | vapor or sublimation pressure ([2]; 333.21 K): 52.48 ± 0.12 kPa | vapor or sublimation pressure ([2]; 343.18 K): 72.98 ± 0.15 kPa | vapor or sublimation pressure ([2]; 353.14 K): 99.11 ± 0.2 kPa
